# The source made the active and inactive calls.
# Columns and labels:
# [1] = intracellular Trypanosoma cruzi inhibitors in host cells – cell-based, plate reader, cherry-pick samples, set 3, dose response (AID 651818); format: functional;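 also: compounds incubated with infected cells for about four days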
# [2] = HepG2 cell cytotoxicity, dose response, cytotoxicity control, cherry-picked samples (AID 1159577); format: functional, cell-based
# [3] = P. falciparum Dd2 growth inhibitors, dose response, SYBR Green, cherry-picked samples (AID 1159567); format: functional, cell-based
# Cytochrome P450 3A4 = Cytochrome P450 3A4 (Homo sapiens, UniProt P08684); conditions: Potency;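 also: confirmatory qHTS run detecting inhibitors and substrates of CYP3A4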
# Cytochrome P450 3A4, sequence (P08684 whole entry): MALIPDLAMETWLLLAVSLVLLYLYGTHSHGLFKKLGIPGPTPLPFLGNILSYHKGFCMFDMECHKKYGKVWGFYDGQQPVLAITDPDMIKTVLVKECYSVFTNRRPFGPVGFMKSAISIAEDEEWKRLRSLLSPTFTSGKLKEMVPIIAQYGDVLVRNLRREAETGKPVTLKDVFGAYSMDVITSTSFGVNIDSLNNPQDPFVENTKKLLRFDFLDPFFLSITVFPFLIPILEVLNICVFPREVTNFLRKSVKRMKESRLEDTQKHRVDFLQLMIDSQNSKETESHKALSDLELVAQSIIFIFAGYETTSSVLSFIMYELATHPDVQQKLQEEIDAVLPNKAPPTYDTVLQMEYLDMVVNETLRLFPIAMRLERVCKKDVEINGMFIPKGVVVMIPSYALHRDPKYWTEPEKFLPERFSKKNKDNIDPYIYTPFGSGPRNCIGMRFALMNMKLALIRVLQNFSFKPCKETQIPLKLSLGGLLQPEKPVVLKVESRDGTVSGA
# [4] = biological target: T1, High affinity choline transporter 1 (Homo sapiens, UniProt Q9GZV3); assay: CHT inhibitors, dose response, cell-based, 5-point CRC, membrane potential dye (AID 504840); format: functional
# T1 sequence (Q9GZV3 whole entry): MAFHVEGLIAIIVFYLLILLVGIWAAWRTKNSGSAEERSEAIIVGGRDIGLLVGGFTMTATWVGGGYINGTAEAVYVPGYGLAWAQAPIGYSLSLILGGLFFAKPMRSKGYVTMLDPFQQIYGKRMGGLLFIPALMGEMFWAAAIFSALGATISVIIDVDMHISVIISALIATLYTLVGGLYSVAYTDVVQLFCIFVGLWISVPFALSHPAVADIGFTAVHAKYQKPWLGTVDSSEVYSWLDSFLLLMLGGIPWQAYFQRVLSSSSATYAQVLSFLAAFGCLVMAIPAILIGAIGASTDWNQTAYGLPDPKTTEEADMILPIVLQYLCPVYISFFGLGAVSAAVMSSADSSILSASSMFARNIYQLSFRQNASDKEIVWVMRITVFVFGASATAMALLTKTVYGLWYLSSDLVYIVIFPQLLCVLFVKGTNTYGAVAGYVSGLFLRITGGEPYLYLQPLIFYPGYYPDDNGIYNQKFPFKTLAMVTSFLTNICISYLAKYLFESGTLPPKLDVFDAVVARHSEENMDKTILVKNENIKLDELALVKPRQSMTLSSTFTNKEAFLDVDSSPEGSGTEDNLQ
# [5] = inhibitors of intracellular T. cruzi replication, confirmation, NIH3T3 host cells, beta-gal luminescence (AID 2044); format: functional, cell-based;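 also: intracellular parasites grown in NIH/3T3 mouse fibroblasts as host cells; luminescent beta-galactosidase reporter signal from transgenic T. cruzi replicating inside host cells; inhibitors lower the luminescence signal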
# [6] = control 3'UTR Renilla luciferase suppression, dose response, counter-screen for Shn3 inhibitor project, cell-based, Clone20-Shn3RL, cherry-picked (AID 624133); format: functional
# [7] = Shn3 3'UTR reporter inhibitors, dose response, cell-based, Clone20 osteoblasts, firefly luciferase, cherry-picked (AID 624132); format: functional;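 also: firefly luciferase luminescence from reporter carrying the Shn3 3'UTR in osteoblasts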
# [8] = cytotoxicity in HEK-293T cells, dose response, cytotoxicity control for TCR NF-kB inhibitor project, luminescence, T-cell screen hits (AID 489026); format: functional, cell-based;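 also: cells exposed to compound about 14 hours before the viability readout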
# [9] = HepG2 cell cytotoxicity, dose response, cytotoxicity control for Shn3 inhibitor project, CellTiter-Glo, cherry-picked (AID 624134); format: functional, cell-based
# [10] = cytotoxicity toward NIH3T3 fibroblasts, dose response, counter-screen, cell-based, ATP luminescence, mouse fibroblasts (AID 2010); format: functional;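 also: cells exposed to compound for about 90 hours before reading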
# [11] = cytotoxicity toward DRD oncogenic fibroblasts, dose response, cell-based, non-viral oncogenic, luminescence (AID 1934); format: functional; conditions: Homo sapiens
# BJ [12] = assay: cytotoxicity toward BJ-TERT-LT-ST fibroblasts, dose response, cell-based, RAS-independent, luminescence (AID 1935); format: functional; conditions: Homo sapiens;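 also: BJ fibroblasts immortalized with TERT plus LT and ST oncogenes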
# BJ [13] = assay: cytotoxicity toward BJ-TERT fibroblasts, dose response, cell-based, RAS-independent, luminescence (AID 1933); format: functional; conditions: Homo sapiens
# BJ [14] = assay: cells; format: functional, cell-based; conditions: Homo sapiens
# [15] = biological target: T2, Polyadenylate-binding protein 1 (Homo sapiens, UniProt P11940); assay: PABP1 MLLE–PAM2 binding inhibitor potency, dose response, biochemical, fluorescence polarization, FITC-PAM2 peptide (AID 602259); format: functional; conditions: read-out: IC50_Mean
# T2 sequence (P11940 whole entry): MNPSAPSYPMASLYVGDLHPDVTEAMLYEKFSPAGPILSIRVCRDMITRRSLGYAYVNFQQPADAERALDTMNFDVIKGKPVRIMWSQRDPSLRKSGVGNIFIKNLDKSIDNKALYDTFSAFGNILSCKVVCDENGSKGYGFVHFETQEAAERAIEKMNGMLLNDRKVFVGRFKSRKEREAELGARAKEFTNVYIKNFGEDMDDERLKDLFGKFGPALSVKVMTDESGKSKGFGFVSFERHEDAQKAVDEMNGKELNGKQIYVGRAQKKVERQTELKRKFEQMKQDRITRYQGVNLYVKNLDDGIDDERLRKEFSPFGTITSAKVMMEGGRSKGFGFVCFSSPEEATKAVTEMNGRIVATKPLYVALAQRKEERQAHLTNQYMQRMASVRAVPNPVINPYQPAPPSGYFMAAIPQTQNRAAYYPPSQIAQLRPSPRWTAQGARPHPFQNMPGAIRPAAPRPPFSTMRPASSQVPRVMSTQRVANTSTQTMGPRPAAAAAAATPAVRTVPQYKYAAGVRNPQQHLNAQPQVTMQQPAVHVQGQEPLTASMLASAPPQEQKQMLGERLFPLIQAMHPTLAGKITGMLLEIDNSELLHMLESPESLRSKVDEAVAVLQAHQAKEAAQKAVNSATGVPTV
# [16] = biological target: T3, Corticotropin-releasing factor receptor 2/Corticotropin-releasing factor-binding protein (Homo sapiens, UniProt P24387+Q13324); assay: activators of CRF receptor 2 with binding protein – uHTS hits, confirmation (AID 602473); format: functional; conditions: read-out: EC50_Mean
# T3 sequence (Q13324 whole entry): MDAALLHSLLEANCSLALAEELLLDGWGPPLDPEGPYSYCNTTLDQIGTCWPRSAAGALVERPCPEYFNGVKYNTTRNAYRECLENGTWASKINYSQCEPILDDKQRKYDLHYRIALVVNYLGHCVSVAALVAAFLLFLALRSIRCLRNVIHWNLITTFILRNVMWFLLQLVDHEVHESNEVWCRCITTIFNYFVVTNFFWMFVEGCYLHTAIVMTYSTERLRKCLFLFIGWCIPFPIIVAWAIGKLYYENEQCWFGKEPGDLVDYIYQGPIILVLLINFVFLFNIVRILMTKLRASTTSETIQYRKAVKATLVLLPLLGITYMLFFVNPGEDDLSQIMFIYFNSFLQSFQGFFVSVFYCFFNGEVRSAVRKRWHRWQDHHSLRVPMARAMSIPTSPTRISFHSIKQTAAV
# T3 sequence (P24387 whole entry): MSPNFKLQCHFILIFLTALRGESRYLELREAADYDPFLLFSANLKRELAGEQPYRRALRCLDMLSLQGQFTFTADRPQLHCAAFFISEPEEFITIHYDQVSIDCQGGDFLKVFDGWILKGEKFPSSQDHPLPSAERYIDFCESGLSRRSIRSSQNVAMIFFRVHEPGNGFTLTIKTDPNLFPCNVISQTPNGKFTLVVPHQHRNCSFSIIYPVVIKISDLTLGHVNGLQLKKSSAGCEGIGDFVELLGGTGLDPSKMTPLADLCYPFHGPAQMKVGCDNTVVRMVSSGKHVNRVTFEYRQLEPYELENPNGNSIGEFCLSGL
# [17] = biological target: T2, Polyadenylate-binding protein 1; assay: PABP1 MLLE–PAM2 interaction inhibitors, dose response, miRNA deadenylation inhibitor project, biochemical, fluorescence polarization, Cy5-PAM2 peptide, secondary (AID 602260); format: functional; conditions: read-out: IC50_Mean
# [18] = MC4R antagonists, dose response, counter-screen for LGR2 antagonist project, cell-based, plate reader, cherry pick (AID 743444); format: functional;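 also: transfected HEK 293 cells stimulated with alpha-MSH peptide; potency of inhibitors of the alpha-MSH evoked signal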
# [19] = LGR2 antagonists, dose response, cell-based, HEK293, CRE-luciferase reporter, cherry pick, set 2 (AID 743343); format: functional;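 also: transfected cells were stimulated with diluted bursicon conditioned medium after compound addition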
# [20] = biological target: Heat shock protein HSP 90-alpha (Homo sapiens, UniProt P07900); format: functional, organism-based
smiles,measurement,setting,value
O=C(N/N=C/c1cc(I)cc(I)c1O)c1ccccc1O,AC50,[1],3.17 µM (active)
CCS(=O)(=O)N1[C@H](CO)[C@H](c2ccc(C#CCC3CCCC3)cc2)[C@@H]1C#N,AC50,[2],62.4 µM (active)
same,AC50,[3],5.64 µM (active)
CC(C)c1c(O)ccc2c1CCC1[C@@](C)(CO)CCC[C@@]21C (stereo not given in full),AC50,Cytochrome P450 3A4,39.8 µM (inconclusive)
CCCc1ccc(OCc2ccc(C(=O)NCc3cccnc3)o2)c(OC)c1,IC50,[4],5.01 µM (active)
O=C(Nc1nc(-c2ccccc2)cs1)c1ccc(N2CCOCC2)c([N+](=O)[O-])c1,EC50,[5],0.895 µM (active)
same,AC50,[6],3.52 µM (active)
same,AC50,[7],3.75 µM (active)
same,IC50,[8],10.2 µM (active)
same,AC50,[9],1.59 µM (active)
same,EC50,[10],> 60 µM (inconclusive)
C[C@H](CO)N1C[C@H](C)[C@H](CN(C)Cc2ccc(Cl)c(Cl)c2)Oc2ccc(NC(=O)Nc3ccc4c(c3)OCO4)cc2CC1=O,AC50,[1],6.16 µM (active)
COc1ccccc1NC(=O)Cn1nnc(C(=O)NCc2cccs2)c1N,EC50,[11],1.18 µM (active)
same,EC50,BJ [12],1.41 µM (active)
same,EC50,BJ [13],1.96 µM (active)
same,EC50,BJ [14],19.3 µM (active)
same,IC50,[8],> 80 µM (inactive)
CC(C)c1ccc(/C=C(\NC(=O)c2ccccc2)C(=O)NCCCn2ccnc2)cc1,IC50,[4],15.8 µM (active)
CN1Cc2c(N3CCOCC3)nc(SCc3ccccc3)c(C#N)c2CC1(C)C,EC50,[5],0.62 µM (active)
same,IC50,[15],> 66 µM (inactive)
same,EC50,[16],> 53 µM (inactive)
same,IC50,[17],> 66 µM (inactive)
same,EC50,[10],> 60 µM (not active)
C[C@H]1CN([C@@H](C)CO)C(=O)c2cc(NC(=O)Nc3ccc(C(F)(F)F)cc3)ccc2O[C@H]1CN(C)Cc1ccc(Oc2ccccc2)cc1,AC50,[1],3.42 µM (active)
CC(C)NC[C@@H]1[C@@H](c2ccc(C3=CCCCC3)cc2)[C@@H](CO)N1C(=O)CC1CC1,AC50,[2],36 µM (active)
same,AC50,[3],6.18 µM (active)
C[C@@H]1CN([C@@H](C)CO)C(=O)c2cc(NS(=O)(=O)c3ccc(F)cc3)ccc2O[C@H]1CN(C)Cc1ccc(-c2ccccc2)cc1,AC50,[18],20.9 µM (active)
same,AC50,[19],45.7 µM (active)
COc1ccc(/C=C2/C(=O)OCc3cc(OC)c(OC)cc32)cc1,IC50,[8],78.5 µM (inactive)
C=CCOC(=O)C(C(C)=O)C(NC(=O)OC)c1ccc2ccccc2c1 (stereo not given),AC50,Cytochrome P450 3A4,1 µM (inconclusive)
CCCCCCC(Cl)(Cn1ccnc1)c1ccccc1 (stereo not given),AC50,[20],8.5 µM (active)
CCCC(=O)N1CCCC(c2cc(C(=O)Nc3ccccc3)no2)C1 (stereo not given),AC50,[18],2.37 µM (active)
same,AC50,[19],1.89 µM (active)
CN(C)C(=O)c1ccc(-c2ccc3c(c2)[C@@H]2[C@@H](CCN2C(=O)C2CCCC2)[C@H](CO)N3C)cc1,AC50,[2],> 39 µM (inactive)
same,AC50,[3],6.47 µM (active)
